Assay type: in vivo
Conditions: dose equianalgesic to a 15 mg dose of hydrocodone

Compound	Equianalgesic Doses of Opioids: Calculated Dose
COc1ccc2c3c1O[C@H]1[C@@H](O)C=C[C@H]4[C@@H](C2)N(C)CC[C@@]341 [Codeine]	90.0 mg
COc1ccc2c3c1OC1C(=O)CC[C@H]4[C@@H](C2)N(C)CC[C@]314 (stereo partly shown) [Hydrocodone, 4,5-epoxy-3-methoxy-17-methylmorphinan-6-one]	15.0 mg
CN1CC[C@]23CCCC[C@H]2[C@H]1Cc1ccc(O)cc13 [Levorphanol]	1.8 mg
CCC(=O)C(CC(C)N(C)C)(c1ccccc1)c1ccccc1 (stereo not shown) [Methadone]	9.0 mg
COc1ccc2c3c1OC1C(=O)CC[C@@]4(O)[C@@H](C2)N(C)CC[C@]314 (stereo partly shown) [Oxycodone, 4,5-epoxy-14-hydroxy-3-methoxy-17-methylmorphinan-6-one]	13.5 mg
Meperidine	135.0 mg

Same assay, conditions: in vivo

Compound	Equianalgesic Doses of Opioids: Calculated Dose
CN1CC[C@]23c4c5ccc(O)c4O[C@H]2[C@@H](O)C=C[C@H]3[C@H]1C5 [Morphine]	27.0 mg

Reference: patent publication US20050020613A1, “Sustained release opioid formulations and method of use” (priority 2002, published 2005)
